Test results reported in patent US20030203414A1, “COMPOUNDS THAT INHIBIT THE INTERACTION BETWEEN SIGNAL-TRANSDUCING PROTEINS AND THE GLGF (PDZ/DHR) DOMAIN AND USES THEREOF” (priority 1999, published 2003).
“Also recorded” adds a separate entry of the source. No end group written: not given here.

Legend:
[1] = test system: DLD-1 human colon cancer cells; assay: Microinjection of synthetic tripeptides into DLD-1 cells, Fas-induced apoptosis; format: cell-based; settings: tripeptide 100 mM microinjected into the cytoplasm; CH11 500 ng/ml; 16 to 20 hours postinjection; condensed chromatin, Hoechst 33342
Description: DLD-1 human colon cancer cells were cultured in RPMI 1640 medium containing 10% FCS. For microinjection, cells were plated on CELLocate (Eppendorf) at 1×10^5 cells/2 ml in a 35 mm plastic culture dish and grown for 1 day. Just before microinjection, Fas monoclonal antibodies CH11 (MBL International) was added at the concentration of 500 ng/ml. All microinjection experiments were performed using an automatic microinjection system (Eppendorf transjector 5246, micro-manipulator 5171 and Femtotips) (Pantel, et al. 1995). Synthetic tripeptides were suspended in 0.1% (w/v) FITC-Dextran (Sigma)/K-PBS at the concentration of 100 mM. The samples were microinjected into the cytoplasmic region of DLD-1 cells. Sixteen to 20 hours postinjection, the cells were washed with PBS and stained with 10 μg/ml Hoechst 33342 in PBS. After incubation at 37° C. for 30 minutes, the cells were photographed and the cells showing condensed chromatin were counted as apoptotic.
For each experiment, 25-100 cells were microinjected. Apoptosis of microinjected cells was determined by assessing morphological changes of chromatin using phase contrast and fluorescence microscopy (Wang, et al., 1995; McGahon, et al., 1995). The data are means +/−S.D. for two or three independent determinations.

Fas/FAP-1 binding = assay: In vitro inhibition assay of Fas/FAP-1 binding (GST-Fas fusion protein and in vitro-translated 35S-labeled FAP-1); settings: for binding of in vitro-translated FAP-1 to GST-Fas: FIG. 3A, GST-Fas (191-355), C-terminal 15 amino acids at 1-1000 μM, human PAMP at 1 mM as negative control
Fas/FAP-1 binding, sequence (Q12923 1361-1456 limits assumed): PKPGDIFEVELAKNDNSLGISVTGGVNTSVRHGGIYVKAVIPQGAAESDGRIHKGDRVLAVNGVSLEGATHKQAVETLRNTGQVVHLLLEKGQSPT
Description: HFAP-10 cDNA (Sato, et al. 1995) subcloned into the Bluescript vector pSK-II (Stratagene) was in vitro-translated from an internal methionine codon in the presence of ^35S-L-methionine using a coupled in vitro transcription/translation system (Promega, TNT lysate) and T7 RNA polymerase. The resulting ^35S-labeled protein was incubated with GST-Fas fusion proteins that had been immobilized on […] affinity beads (Pharmacia) in a buffer containing 150 mM NaCl, 50 mM Tris [pH 8.0], 5 mM DTT, 2 mM EDTA, 0.1% NP-40, 1 mM PMSF, 50 μg/ml leupeptin, 1 mM Benzamidine, and 7 μg/ml pepstatin for 16 hours at 4° C. After washing vigorously 4 times in the same buffer, associated proteins were recovered with the glutathione-Sepharose beads by centrifugation, eluted into boiling Laemmli buffer, and analyzed by SDS-PAGE and fluorography.
In vitro-translated [^35]HFAP-1 was purified with a NAP-5 column (Pharmacia) and incubated with 3 μM of GST-fusion proteins for 16 hours at 4° C. After washing 4 times in the binding buffer, radioactivity incorporation was determined in a b counter. The percentage of binding inhibition was calculated as follows: percent inhibition=[radioactivity incorporation using GST-Fas (191-335) with peptides−radioactivity incorporation using GST-Fas (191-320) with peptides]/[radioactivity incorporation using GST-Fas (191-335) without peptides−radioactivity incorporation using GST-Fas (191-320) without peptides]. n=3.

[2] = target: T1, binding of FAP-1 to Fas proteins extracted from Jurkat T-cells (Homo sapiens, UniProt Q12923); assay: Immuno-precipitation of native Fas from Jurkat T-cell extracts with GST-FAP-1, inhibition with tripeptides; settings: FIGS. 4C and 4D, Western analysis with anti-Fas monoclonal antibody
T1 construct: made in house; Fas is endogenous in Jurkat T-cell extract
T1 sequence (Q12923 whole entry): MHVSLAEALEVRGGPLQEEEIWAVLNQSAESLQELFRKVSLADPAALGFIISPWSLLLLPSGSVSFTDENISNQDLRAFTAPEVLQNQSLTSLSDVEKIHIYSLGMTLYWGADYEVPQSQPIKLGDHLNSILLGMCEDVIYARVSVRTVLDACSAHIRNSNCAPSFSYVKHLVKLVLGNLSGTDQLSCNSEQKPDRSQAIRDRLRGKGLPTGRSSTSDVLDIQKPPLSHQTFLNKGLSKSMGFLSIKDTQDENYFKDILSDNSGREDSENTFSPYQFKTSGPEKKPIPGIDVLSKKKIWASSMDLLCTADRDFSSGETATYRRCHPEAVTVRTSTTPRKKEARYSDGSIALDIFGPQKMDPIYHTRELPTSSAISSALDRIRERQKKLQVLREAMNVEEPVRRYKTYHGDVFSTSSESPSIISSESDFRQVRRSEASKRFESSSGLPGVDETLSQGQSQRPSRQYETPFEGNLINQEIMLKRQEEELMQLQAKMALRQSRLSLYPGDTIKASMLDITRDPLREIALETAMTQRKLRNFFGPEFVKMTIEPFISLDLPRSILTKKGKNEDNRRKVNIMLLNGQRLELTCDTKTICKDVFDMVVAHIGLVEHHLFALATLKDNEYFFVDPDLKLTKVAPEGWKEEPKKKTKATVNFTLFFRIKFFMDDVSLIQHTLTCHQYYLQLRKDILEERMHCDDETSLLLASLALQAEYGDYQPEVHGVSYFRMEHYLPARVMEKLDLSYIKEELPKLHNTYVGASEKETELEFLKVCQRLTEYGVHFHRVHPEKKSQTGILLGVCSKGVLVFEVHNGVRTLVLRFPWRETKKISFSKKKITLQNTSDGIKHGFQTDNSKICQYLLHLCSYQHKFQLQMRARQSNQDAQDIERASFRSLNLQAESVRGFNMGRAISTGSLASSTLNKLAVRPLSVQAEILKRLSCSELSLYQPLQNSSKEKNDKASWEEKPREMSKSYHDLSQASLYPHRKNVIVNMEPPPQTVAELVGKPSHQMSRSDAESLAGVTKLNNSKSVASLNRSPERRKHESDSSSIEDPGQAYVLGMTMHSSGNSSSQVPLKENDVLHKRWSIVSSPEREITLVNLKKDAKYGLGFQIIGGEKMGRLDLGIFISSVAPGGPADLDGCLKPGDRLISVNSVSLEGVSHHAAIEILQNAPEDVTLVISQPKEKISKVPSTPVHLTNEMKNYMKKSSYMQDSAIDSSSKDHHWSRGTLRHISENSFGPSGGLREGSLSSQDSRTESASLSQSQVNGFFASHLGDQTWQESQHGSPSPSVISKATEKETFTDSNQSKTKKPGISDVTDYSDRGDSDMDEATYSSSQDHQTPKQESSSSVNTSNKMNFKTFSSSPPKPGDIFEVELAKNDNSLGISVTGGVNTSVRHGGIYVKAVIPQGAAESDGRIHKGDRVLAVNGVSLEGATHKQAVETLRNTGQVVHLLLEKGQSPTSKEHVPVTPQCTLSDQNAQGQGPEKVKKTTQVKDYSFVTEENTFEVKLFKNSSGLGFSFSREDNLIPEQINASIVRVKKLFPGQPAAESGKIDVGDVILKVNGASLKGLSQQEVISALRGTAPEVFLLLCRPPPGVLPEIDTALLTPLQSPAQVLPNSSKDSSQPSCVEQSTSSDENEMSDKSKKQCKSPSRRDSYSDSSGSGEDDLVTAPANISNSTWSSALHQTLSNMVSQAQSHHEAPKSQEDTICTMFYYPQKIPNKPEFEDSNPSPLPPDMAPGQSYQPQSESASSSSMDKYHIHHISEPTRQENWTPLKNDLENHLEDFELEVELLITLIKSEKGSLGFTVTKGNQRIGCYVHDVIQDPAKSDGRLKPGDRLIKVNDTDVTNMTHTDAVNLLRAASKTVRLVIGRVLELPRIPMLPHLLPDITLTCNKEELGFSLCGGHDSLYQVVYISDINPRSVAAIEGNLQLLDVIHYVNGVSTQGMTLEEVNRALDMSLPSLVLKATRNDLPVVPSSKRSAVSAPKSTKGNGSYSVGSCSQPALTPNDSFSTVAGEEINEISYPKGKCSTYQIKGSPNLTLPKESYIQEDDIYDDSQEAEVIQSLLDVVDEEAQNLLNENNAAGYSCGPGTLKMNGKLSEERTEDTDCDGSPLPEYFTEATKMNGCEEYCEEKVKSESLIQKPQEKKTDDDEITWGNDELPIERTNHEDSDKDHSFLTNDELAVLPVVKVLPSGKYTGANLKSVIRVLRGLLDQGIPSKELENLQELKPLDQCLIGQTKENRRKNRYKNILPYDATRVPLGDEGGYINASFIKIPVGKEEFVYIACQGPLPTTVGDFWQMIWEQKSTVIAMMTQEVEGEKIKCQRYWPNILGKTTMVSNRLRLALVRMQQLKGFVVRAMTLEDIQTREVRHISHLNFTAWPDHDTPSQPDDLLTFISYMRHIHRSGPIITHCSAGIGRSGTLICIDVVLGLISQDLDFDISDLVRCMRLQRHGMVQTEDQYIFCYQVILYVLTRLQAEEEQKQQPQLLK
Description: GST-fusion proteins with or without FAP-1 were incubated with cell extracts from Jurkat T-cells expressing Fas. The bound Fas was detected by Western analysis using anti-Fas monoclonal antibody (F22120, Transduction Laboratories). The tripeptides, Ac-SLV and Ac-SLY were used for the inhibition assay of Fas/FAP-1 binding.

inhibitory effect on the binding of FAP-1 to Fas, truncated C-terminal peptides (Fas/FAP-1 binding; FIG. 3B, acetylated synthetic peptides)	binding activity of FAP-1 to Fas proteins extracted from Jurkat T-cells [2]	binding of in vitro-translated FAP-1 to GST-Fas (Fas/FAP-1 binding)	Substance	induction of apoptosis in microinjected DLD-1 cells [1]
same level of inhibitory effect	abolished in a dose-dependent manner		Ac-SLV-COOH (Ac-Ser-Leu-Val-OH) [acetylated tripeptide, the three C-terminal amino acids of Fas]	dramatically induced apoptosis; also recorded: showed condensed chromatin
	not		Ac-SLY: acetylated synthetic tripeptide SLY used as a non-binding control (Ac-Ser-Leu-Tyr) [reference compound]	did not; also recorded: only one cell of the area appeared apoptotic
		dramatically reduced	DSENSNFRNEIQSLV (Ac-DSENSNFRNEIQSLV) [synthetic 15 amino acids of Fas, synthetic peptide of the C-terminal 15 amino acids of Fas]	
		had no effect	human PAMP peptide: N-terminal 20 amino acids of proadrenomedullin, negative control (ARLDVASEFRKKWNKWALSR; ends and bridges not checked; UniProt P35318 22-41, looked up) [reference compound]	
